# Assays:
# Assay type in all cases: functional
# PBMC [1] = experiment: Inhibition of LPS-induced IL12 production in human PBMC at 0.3 mg/mL after 48 hrs by ELISA
# PBMC [2] = experiment: Inhibition of LPS-induced IL10 production in human PBMC at 0.3 mg/mL after 48 hrs by ELISA
# PBMC [3] = experiment: Inhibition of LPS-induced TNFalpha production in human PBMC at 0.3 mg/mL after 48 hrs by ELISA
smiles,measurement,setting,value
C[C@]12C=CC(=O)C=C1CC[C@@H]1[C@@H]2[C@@H](O)C[C@@]2(C)[C@H]1CC[C@]2(O)C(=O)CO [PREDNISOLONE],inhibition at 300 µg/mL,PBMC [1],0.24%
same,inhibition at 300 µg/mL,PBMC [2],0.14%
same,inhibition at 300 µg/mL,PBMC [3],0.44%
